Laboratory results taken from patent publication US20230365589A1, “NOVEL AMINE DERIVATIVES” (Sumitomo Pharma Co., Ltd., priority 2020, published 2023).
Where two headings read alike, the source gives them in different places.

How the values were obtained:
Type in all cases: biochemical
DYRK1A = molecular target: T1, DYRK1A (Homo sapiens, UniProt Q13627); assay: Inhibition test on activity of DYRK family, mobility shift assay (MSA): DYRK1A
T1 construct: purchased Carna Biosciences, Inc. 04-130
Method in brief: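 IC50 derived by regressing inhibition rate on log compound concentration, using P/(P+S) peak ratios from electrophoretic separation. DYRK1A enzyme solution 0.2 ng/μL, substrate mix with 4 μM FITC-DYRKtide and 100 μM ATP, pH 7.5 HEPES; reaction run 1 h at room temperature.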

DYRK2 = molecular target: T2, DYRK2 (Homo sapiens, UniProt Q92630); assay: Inhibition test on activity of DYRK family, mobility shift assay (MSA): DYRK2
T2 construct: purchased Carna Biosciences, Inc. 04-132
T2 sequence (Q92630 74-601 limits assumed): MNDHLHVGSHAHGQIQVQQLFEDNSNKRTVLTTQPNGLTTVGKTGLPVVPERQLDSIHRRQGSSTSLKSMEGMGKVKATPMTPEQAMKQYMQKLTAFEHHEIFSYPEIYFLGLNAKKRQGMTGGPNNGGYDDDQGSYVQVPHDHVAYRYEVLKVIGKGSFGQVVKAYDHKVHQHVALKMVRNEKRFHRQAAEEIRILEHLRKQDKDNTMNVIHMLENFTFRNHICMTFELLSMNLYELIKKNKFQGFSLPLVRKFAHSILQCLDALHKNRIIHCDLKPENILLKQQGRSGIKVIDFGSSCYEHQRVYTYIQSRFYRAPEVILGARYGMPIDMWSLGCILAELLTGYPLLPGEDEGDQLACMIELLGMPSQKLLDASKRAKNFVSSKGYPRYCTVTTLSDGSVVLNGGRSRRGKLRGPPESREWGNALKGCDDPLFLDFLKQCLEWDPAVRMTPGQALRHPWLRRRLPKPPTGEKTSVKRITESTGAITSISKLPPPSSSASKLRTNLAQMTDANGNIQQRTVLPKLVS
Method in brief: (§1)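 Reactions ran 1 h at room temperature in HEPES buffer pH 7.5 with FITC-DYRKtide as substrate. ATP in the substrate mix was 100 µM for DYRK1A, 200 µM for DYRK1B, 40 µM for DYRK2 and 20 µM for DYRK3. Phosphorylated and unphosphorylated peptide were separated on a LabChip, and IC50 was regressed on log dose.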

DYRK3 = molecular target: T3, DYRK3 (Homo sapiens, UniProt O43781); assay: Inhibition test on activity of DYRK family, mobility shift assay (MSA): DYRK3
T3 construct: purchased Carna Biosciences, Inc. 04-133
T3 sequence (O43781 1-568 isoform O43781-2): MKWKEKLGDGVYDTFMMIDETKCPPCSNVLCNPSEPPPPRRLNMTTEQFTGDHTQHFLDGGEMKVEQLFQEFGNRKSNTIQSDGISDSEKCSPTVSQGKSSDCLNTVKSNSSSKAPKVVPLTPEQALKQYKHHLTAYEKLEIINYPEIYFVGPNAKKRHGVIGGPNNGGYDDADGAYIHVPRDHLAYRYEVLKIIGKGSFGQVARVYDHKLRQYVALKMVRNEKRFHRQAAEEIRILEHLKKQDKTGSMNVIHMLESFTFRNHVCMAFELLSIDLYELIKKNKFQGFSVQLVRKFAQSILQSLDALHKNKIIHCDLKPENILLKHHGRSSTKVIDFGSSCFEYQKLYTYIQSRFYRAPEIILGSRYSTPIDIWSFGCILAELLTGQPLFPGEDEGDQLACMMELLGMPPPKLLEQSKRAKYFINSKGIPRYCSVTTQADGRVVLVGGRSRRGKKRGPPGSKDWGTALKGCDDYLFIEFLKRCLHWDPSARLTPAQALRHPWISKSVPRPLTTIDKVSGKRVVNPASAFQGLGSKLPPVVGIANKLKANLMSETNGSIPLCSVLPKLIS
Method in brief: as §1

[1] = MSA, FITC-labeled DYRKtide peptide, ATP 100 μM, read-out: Inhibitory activity DYRK 1A (IC50 class)
[2] = MSA, FITC-labeled DYRKtide peptide, ATP 40 μM, read-out: Inhibitory activity DYRK 2 (IC50 class)
[3] = MSA, FITC-labeled DYRKtide peptide, ATP 20 μM, read-out: Inhibitory activity DYRK 3 (IC50 class)
[4] = read-out: Inhibitory activity DYRK 1A
[5] = read-out: Inhibitory activity DYRK 2
[6] = read-out: Inhibitory activity DYRK 3

| Compound | IC50 (DYRK1A; [1]) | IC50 (DYRK2; [2]) | IC50 (DYRK3; [3]) | IC50 (DYRK1A; [4]) | IC50 (DYRK2; [5]) | IC50 (DYRK3; [6]) |
| --- | --- | --- | --- | --- | --- | --- |
| COC[C@@H]1[C@H](C)NC(=O)N1c1nc2c3c(ccc2s1)OCC3 [Example 44, (4S,5S)-1-(7,8-dihydrofuro[3,2-e][1,3]benzothiazol-2-yl)-5-(methoxymethyl)-4-methylimidazolidin-2-one] | < 10 nM | 100 to 1000 nM | 100 to 1000 nM |  |  |  |
| O=C1N[C@H]2CCNCC[C@H]2N1c1nc2c3c(ccc2s1)OCC3 [Example 45] | 10 to 100 nM | 100 to 1000 nM | 10 to 100 nM |  |  |  |
| O=C1N[C@@H]2[C@@H](CCNC23CC3)N1c1nc2c3c(ccc2s1)OCC3 [Example 46] | 10 to 100 nM | 100 to 1000 nM | 100 to 1000 nM |  |  |  |
| O=C1N[C@H]2CCNC3(CC3)[C@H]2N1c1nc2c3c(ccc2s1)OCC3 [Example 47] | 100 to 1000 nM | ≥ 1000 nM | 100 to 1000 nM |  |  |  |
| O=C1N[C@@H]2CCNC3(CC3)[C@H]2N1c1nc2c3c(ccc2s1)OCC3 [Example 48] | 10 to 100 nM | 100 to 1000 nM | 10 to 100 nM |  |  |  |
| O=C1N[C@H]2CNC[C@H](F)[C@H]2N1c1nc2c3c(ccc2s1)OCC3 [Example 49] | 10 to 100 nM | 100 to 1000 nM | 100 to 1000 nM |  |  |  |
| O=C1N[C@H]2[C@H](F)CNC[C@H]2N1c1nc2c3c(ccc2s1)OCC3 [Example 50] | 100 to 1000 nM | ≥ 1000 nM | 100 to 1000 nM |  |  |  |
| O=C1N[C@H]2CNCC[C@H]2N1c1nc2c3c(ccc2s1)OCCO3 [Example 51] | 10 to 100 nM | 100 to 1000 nM | 100 to 1000 nM |  |  |  |
| O=C1N[C@H]2CCN(C3CNC3)C[C@H]2N1c1nc2c3c(ccc2s1)OCC3 [Example 53] | 100 to 1000 nM | ≥ 1000 nM | 100 to 1000 nM |  |  |  |
| O=C1N[C@H]2CNCCC[C@H]2N1c1nc2c3c(ccc2s1)OCO3 [Example 54] | 10 to 100 nM | 100 to 1000 nM | 100 to 1000 nM |  |  |  |
| O=C1N[C@H]2CCCNC[C@H]2N1c1nc2c3c(ccc2s1)OCO3 [Example 55] | 100 to 1000 nM | ≥ 1000 nM | 100 to 1000 nM |  |  |  |
| O=C1N[C@H]2CNC3(CC3)C[C@H]2N1c1nc2c3c(ccc2s1)OCC3 [Example 56] | 100 to 1000 nM | ≥ 1000 nM | 100 to 1000 nM |  |  |  |
| O=C1N[C@H]2CC3(CC3)NC[C@H]2N1c1nc2c3c(ccc2s1)OCC3 [Example 57] | 100 to 1000 nM | ≥ 1000 nM | 100 to 1000 nM |  |  |  |
| O=C1N[C@H]2COC[C@H]2N1c1nc2c3c(ccc2s1)OCC3 [Example 65, (3aR,6aS)-1-(7,8-dihydrofuro[3,2-e][1,3]benzothiazol-2-yl)tetrahydro-1H-furo[3,4-d]imidazol-2(3H)-one] | < 10 nM | 10 to 100 nM | 10 to 100 nM |  |  |  |
| O=C1N[C@@H]2COC[C@@H]2N1c1nc2c3c(ccc2s1)OCC3 [Example 66] | 100 to 1000 nM | ≥ 1000 nM | ≥ 1000 nM |  |  |  |
| CN1CC[C@@H]2NC(=O)N(c3nc4c5c(ccc4s3)OCC5)[C@@H]2CC1 [Example 67] | 100 to 1000 nM | ≥ 1000 nM | 100 to 1000 nM |  |  |  |
| CN1CC[C@@H]2[C@@H](NC(=O)N2c2nc3c4c(ccc3s2)OCC4)C12CC2 [Example 68] | 100 to 1000 nM | ≥ 1000 nM | 100 to 1000 nM |  |  |  |

| Compound | IC50 (DYRK1A; [1]) | IC50 (DYRK2; [2]) | IC50 (DYRK3; [3]) | IC50 (DYRK1A; [4]) | IC50 (DYRK2; [5]) | IC50 (DYRK3; [6]) |
| --- | --- | --- | --- | --- | --- | --- |
| CN1C[C@@H]2NC(=O)N(c3nc4c5c(ccc4s3)OCC5)[C@@H]2[C@@H](F)C1 [Example 74] | 100 to 1000 nM | ≥ 1000 nM | 100 to 1000 nM |  |  |  |
| CN1C[C@@H](F)[C@@H]2NC(=O)N(c3nc4c5c(ccc4s3)OCC5)[C@@H]2C1 [Example 75] | 10 to 100 nM | ≥ 1000 nM | ≥ 1000 nM |  |  |  |
| CC(C)(C)OC(=O)N1CC(N2CC[C@@H]3NC(=O)N(c4nc5c6c(ccc5s4)OCC6)[C@@H]3C2)C1 [Example 82] | 10 to 100 nM | ≥ 1000 nM | ≥ 1000 nM |  |  |  |
| CN1CC(N2CC[C@@H]3NC(=O)N(c4nc5c6c(ccc5s4)OCC6)[C@@H]3C2)C1 [Example 83] | 100 to 1000 nM | ≥ 1000 nM | 100 to 1000 nM |  |  |  |
| CN1CCC[C@@H]2[C@H](C1)NC(=O)N2c1nc2c3c(ccc2s1)OCO3 [Example 84] | 10 to 100 nM | 100 to 1000 nM | 100 to 1000 nM |  |  |  |
| O=C1N[C@H]2CN(C3CC3)CC[C@H]2N1c1nc2c3c(ccc2s1)OCO3 [Example 87] | 100 to 1000 nM | 100 to 1000 nM | ≥ 1000 nM |  |  |  |
| O=C1N[C@H]2CN(C3CC3)CC[C@H]2N1c1nc2c3c(ccc2s1)OCCO3 [Example 88] | 100 to 1000 nM | ≥ 1000 nM | ≥ 1000 nM |  |  |  |
| CN1C[C@@H]2NC(=O)N(c3nc4c5c(ccc4s3)OCC5)[C@@H]2CC12CC2 [Example 89] | 100 to 1000 nM | ≥ 1000 nM | ≥ 1000 nM |  |  |  |
| CN1C[C@@H]2[C@H](CC13CC3)NC(=O)N2c1nc2c3c(ccc2s1)OCC3 [Example 90] | 10 to 100 nM | 100 to 1000 nM | 100 to 1000 nM |  |  |  |
| C[C@H]1[C@H]2NC(=O)N(c3nc4c5c(ccc4s3)OCC5)C2CCN1C (stereo partly drawn) [Example 91] | 10 to 100 nM | 100 to 1000 nM | 10 to 100 nM |  |  |  |
| C[C@H]1C[C@H]2NC(=O)N(c3nc4c5c(ccc4s3)OCC5)C2CN1C (stereo partly drawn) [Example 92] |  |  |  | 100 to 1000 nM | ≥ 1000 nM | ≥ 1000 nM |
| C[C@H]1C[C@@H]2[C@H](CN1C)NC(=O)N2c1nc2c3c(ccc2s1)OCC3 [Example 93, (3aS,6S,7aR)-1-(7,8-dihydrofuro[3,2-e][1,3]benzothiazol-2-yl)-5,6-dimethyloctahydro-2H-imidazo[4,5-c]pyridin-2-one] |  |  |  | 10 to 100 nM | ≥ 1000 nM | 100 to 1000 nM |
| C[C@H]1[C@@H]2[C@H](CCN1C)NC(=O)N2c1nc2c3c(ccc2s1)OCC3 [Example 94] |  |  |  | 100 to 1000 nM | ≥ 1000 nM | ≥ 1000 nM |
| C[C@H]1[C@H]2[C@@H](CCN1C)NC(=O)N2c1nc2c3c(ccc2s1)OCC3 [Example 95] |  |  |  | 100 to 1000 nM | 100 to 1000 nM | 100 to 1000 nM |
| C[C@@H]1C[C@@H]2NC(=O)N(c3nc4c5c(ccc4s3)OCC5)[C@@H]2CN1C [Example 96] |  |  |  | 100 to 1000 nM | ≥ 1000 nM | ≥ 1000 nM |
| C[C@@H]1[C@@H]2NC(=O)N(c3nc4c5c(ccc4s3)OCC5)[C@@H]2CCN1C [Example 97] |  |  |  | 100 to 1000 nM | ≥ 1000 nM | ≥ 1000 nM |
